In patent US8541460B2, “PDK-1/Akt signaling inhibitors” (The Ohio State University, priority 2003, dated 2013):

Assays:
recombinant PDK-1 = biological target: T1, recombinant PDK-1 (Homo sapiens, UniProt O15530); test: PDK-1 kinase activity (Upstate kit, cell-free); format: biochemical
T1 construct: purchased Upstate (Lake Placid, N.Y.)
T1 sequence (O15530 1-556): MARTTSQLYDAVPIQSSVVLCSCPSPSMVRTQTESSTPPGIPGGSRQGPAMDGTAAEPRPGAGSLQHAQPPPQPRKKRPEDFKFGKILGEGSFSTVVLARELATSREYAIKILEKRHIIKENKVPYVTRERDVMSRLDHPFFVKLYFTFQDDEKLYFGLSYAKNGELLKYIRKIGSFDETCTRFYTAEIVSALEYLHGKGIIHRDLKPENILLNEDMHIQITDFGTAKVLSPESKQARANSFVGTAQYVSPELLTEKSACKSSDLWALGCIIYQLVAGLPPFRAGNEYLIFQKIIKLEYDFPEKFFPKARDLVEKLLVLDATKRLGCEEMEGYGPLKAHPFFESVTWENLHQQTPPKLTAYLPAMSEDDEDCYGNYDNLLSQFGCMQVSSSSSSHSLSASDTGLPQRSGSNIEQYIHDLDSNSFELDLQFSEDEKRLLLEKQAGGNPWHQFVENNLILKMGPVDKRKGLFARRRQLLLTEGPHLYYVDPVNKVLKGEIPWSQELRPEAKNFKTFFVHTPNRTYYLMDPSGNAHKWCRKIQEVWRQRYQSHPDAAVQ
Description: PDK-1 kinase activity This in vitro assay was performed using a PDK-1 kinase assay kit (Upstate, Lake Placid, N.Y.) according to the vendor's instructions. This cell-free assay is based on the ability of recombinant PDK-1, in the presence of DMSO vehicle or the test agent, to activate its downstream kinase serum- and glucocorticoid-regulated kinase (SGK.) which, in turn, phosphorylates the Akt/SGK-specific peptide substrate RPRAATF with [γ-^32]-ATP. […] The reported values represent the means of two independent determinations.

SF-268 = test: NCI DTP cell line screen (SRB), CNS Cancer; format: cell-based
Description: (§1) Screening of compounds 70 and 71 against several cancer cell lines The human tumor cell lines of the cancer screening panel are grown in RPMI 1640 medium containing 5% fetal bovine serum and 2 mM L-glutamine. For a typical screening experiment, cells are inoculated into 96 well microtiter plates in 100 μL at plating densities ranging from 5,000 to 40,000 cells/well depending on the doubling time of individual cell lines. After cell inoculation, the microtiter plates are incubated at 37° C., 5% CO2, 95% air and 100% relative humidity for 24 h prior to addition of experimental drugs.
(§2) After 24 h, two plates of each cell line are fixed in situ with TCA, to represent a measurement of the cell population for each cell line at the time of drug addition (Tz). Experimental drugs are solubilized in dimethyl sulfoxide at 400-fold the desired final maximum test concentration and stored frozen prior to use. At the time of drug addition, an aliquot of frozen concentrate is thawed and diluted to twice the desired final maximum test concentration with complete medium containing 50 μg/ml gentamicin. Additional four, 10-fold or ½ log serial dilutions are made to provide a total of five drug concentrations plus control. Aliquots of 100 μl of these different drug dilutions are added to the appropriate microtiter wells already containing 100 μl of medium, resulting in the required final drug concentrations.
(§3) Following drug addition, the plates are incubated for an additional 48 h at 37° C., 5% CO2, 95% air, and 100% relative humidity. For adherent cells, the assay is terminated by the addition of cold TCA. Cells are fixed in situ by the gentle addition of 50 μl of cold 50% (w/v) TCA (final concentration, 10% TCA) and incubated for 60 minutes at 4° C. The supernatant is discarded, and the plates are washed five times with tap water and air dried. Sulforhodamine B (SRB) solution (100 μl) at 0.4% (w/v) in 1% acetic acid is added to each well, and plates are incubated for 10 minutes at room temperature. After staining, unbound dye is removed by washing five times with 1% acetic acid and the plates are air dried. Bound stain is subsequently solubilized with 10 mM trizma base, and the absorbance is read on an automated plate reader at a wavelength of 515 nm. For suspension cells, the methodology is the same except that the assay is terminated by fixing settled cells at the bottom of the wells by gently adding 50 μl of 80% TCA (final concentration, 16% TCA). Using the seven absorbance measurements [time zero, (Tz), control growth, (C), and test growth in the presence of drug at the five concentration levels (Ti)], the percentage growth is calculated at each of the drug concentrations levels. Percentage growth inhibition is calculated as: [(Ti−Tz)/(C−Tz)]×100 for concentrations for which Ti>/=Tz [(Ti−Tz)/Tz]×100 for concentrations for which Ti<Tz
(§4) Three dose response parameters are calculated for each experimental agent. […] The drug concentration resulting in total growth inhibition (TGI) is calculated from Ti=Tz. […] Values are calculated for each of these three parameters if the level of activity is reached; however, if the effect is not reached or is exceeded, the value for that parameter is expressed as greater or less than the maximum or minimum concentration tested.
(§5) The methods described were used to test compounds 70 and 71 on a panel of sixty cell lines under a screening service provided by the Developmental Therapeutics Program at the National Institutes of Health. Shown in FIG. 1C are 1, RPMI-8226 leukemia cells; 2; NCI-H322M non-small cell lung cancer cells; 3, HT29 colon cancer cells; 4, U251 CNS cancer cells; 5, SK-MEL-28 melanoma cancer cells; 6, SK-OV-3 ovarian cancer cells; 7, RXF 393 renal cancer cells; 8, PC-3 prostate cancer cells; 9, MDA-MB-231 breast cancer cells.

SF-295 = test: NCI DTP cell line screen (SRB), CNS Cancer; format: cell-based
Description: as §1, §2, §3, §4, §5

SNB-19 = test: NCI DTP cell line screen (SRB), CNS Cancer; format: cell-based, human
Description: as §1, §2, §3, §4, §5

U251 = test: NCI DTP cell line screen (SRB), CNS Cancer; format: cell-based, human
Description: as §1, §2, §3, §4, §5

NCI-H226 = test: NCI DTP cell line screen (SRB), Non-Small Cell Lung Cancer; format: cell-based, human
Description: as §1, §2, §3, §4, §5

BT-549 = test: NCI DTP cell line screen (SRB), Breast Cancer; format: cell-based

## NCC(=O)Nc1ccc(-n2nc(C(F)(F)F)cc2-c2ccc3c(ccc4ccccc43)c2)cc1 [Compound 70, 2-Amino-N-{4-[5-(2-phenanthrenyl)-3-(trifluoromethyl)-1H-pyrazol-1-yl]-phenyl}-acetamide]
Recombinant PDK-1
  increase in potency over compound 59 (PDK-1 inhibition): two
SF-268
  TGI: 4.16E−06
SF-268; Log10 Concentration −4.0
  Percent Growth: 26%
SF-268; Log10 Concentration −5.0
  Percent Growth: −33%
SF-268; Log10 Concentration −6.0
  Percent Growth: 54%
SF-268; Log10 Concentration −7.0
  Percent Growth: 72%
SF-268; Log10 Concentration −8.0
  Percent Growth: 84%
SF-295
  TGI: 3.71E−06
SF-295; Log10 Concentration −4.0
  Percent Growth: −32%
SF-295; Log10 Concentration −5.0
  Percent Growth: −47%
SF-295; Log10 Concentration −6.0
  Percent Growth: 62%
SF-295; Log10 Concentration −7.0
  Percent Growth: 96%
SF-295; Log10 Concentration −8.0
  Percent Growth: 94%
SNB-19
  TGI: 3.15E−06
SNB-19; Log10 Concentration −4.0
  Percent Growth: −39%
SNB-19; Log10 Concentration −5.0
  Percent Growth: −59%
SNB-19; Log10 Concentration −6.0
  Percent Growth: 59%
SNB-19; Log10 Concentration −7.0
  Percent Growth: 94%
SNB-19; Log10 Concentration −8.0
  Percent Growth: 87%
U251
  TGI: 2.64E−06
U251; Log10 Concentration −4.0
  Percent Growth: −18%
U251; Log10 Concentration −5.0
  Percent Growth: −63%
U251; Log10 Concentration −6.0
  Percent Growth: 46%
U251; Log10 Concentration −7.0
  Percent Growth: 82%
U251; Log10 Concentration −8.0
  Percent Growth: 100%
NCI-H226; Log10 Concentration −4.0
  Percent Growth: −48%
NCI-H226; Log10 Concentration −5.0
  Percent Growth: −58%
NCI-H226; Log10 Concentration −6.0
  Percent Growth: 59%
NCI-H226; Log10 Concentration −7.0
  Percent Growth: 98%
NCI-H226; Log10 Concentration −8.0
  Percent Growth: 100%
NCI-H226; in M (unit assumed)
  TGI: 3.21E−06
BT-549
  TGI: 2.95E−06
BT-549; Log10 Concentration −4.0
  Percent Growth: −60%
BT-549; Log10 Concentration −5.0
  Percent Growth: −71%
BT-549; Log10 Concentration −6.0
  Percent Growth: 63%
BT-549; Log10 Concentration −7.0
  Percent Growth: 86%
BT-549; Log10 Concentration −8.0
  Percent Growth: 90%
